Measurements reported in patent US11623014B2, “Mini-gastrin analogue, in particular for use in CCK2 receptor positive tumour diagnosis and/or treatment” (Paul Scherrer Institut, priority 2013, dated 2023).

Experiments:
[1] = Stability of 177Lu-labelled mini-gastrin analogues in human serum/plasma, metabolites by HPLC; format: in vitro ADME; details: human serum, radio-labelled with 177Lu, compared with PP-F11, PP-F10N and PP-F10
Procedure: 12 MBq of the radiolabelled compound was incubated in 2 mL fresh human plasma. A 40 μL probe was taken after 0, 1, 2, 18, 24, 48 and 72 h and added 200 μL (50% Methanol and 50% Acetonitril) in a Mini-UniPrep Filter. The solution is filtered after vortexing. 40 μL of the filtered solution is analyzed by HPLC.

[2] = test system: human CCK-2 receptor transfected A431 cells; assay: Biodistribution studies in CD1 nu/nu mice bearing CCK-2 receptor positive and mock A431 tumours; format: in vivo
Procedure: PP-F11N has been investigated according to the CD1 nu/nu mice model. […] FIG. 2 illustrates the biodistribution of PP-F11, PP-F11N and oxidized PP-F11 ox (oxidized PP-F11) after 4 hours in the athymic CD1 nu/nu mice model. Tumour positive: with human CCK-2 receptor transfected A431 cells on one side of the mouse; tumor negative: CCK-2 receptor negative A431 cells on the other side of the mouse. The effect of the higher tumor uptake by the exchange of methionine with norleucine is specifically apparent with compounds having the DGlu6 sequence, different from compounds having a sequence with DGLn6 which is referred to as PP-F10.
CD1 nu/nu mice were injected with 5×10^6 A431 cells. CCK-2 receptor positive A431 cells' were injected into one flank and mock cells on the other as an unspecific control. The tumors reach a weight of about 80 to 120 mg after about 10 days. 150-200 kBq (5 pmol) of the radiolabelled peptides were injected into the tail vein. Mice were killed by CO2 asphyxiation after defined time points post injection. The organs were dissected, weighted and the activity was measured. The % injected activity per gram (% i.A./g) was calculated. The animal experiments were approved by the local animal welfare committee and performed according to national regulations.

[3] = biodistribution after 4 hours, athymic CD1 nu/nu mice

## CCCC[C@H](NC(=O)[C@H](Cc1c[nH]c2ccccc12)NC(=O)CNC(=O)[C@H](Cc1ccc(O)cc1)NC(=O)[C@H](C)NC(=O)[C@@H](CCC(=O)O)NC(=O)[C@@H](CCC(=O)O)NC(=O)[C@@H](CCC(=O)O)NC(=O)[C@@H](CCC(=O)O)NC(=O)[C@@H](CCC(=O)O)NC(=O)[C@@H](CCC(=O)O)NC(=O)CN1CCN(CC(=O)O)CCN(CC(=O)O)CCN(CC(=O)O)CC1)C(=O)N[C@@H](CC(=O)O)C(=O)N[C@@H](Cc1ccccc1)C(N)=O [PP-F11N]
[1]
  pharmacologic stability: highest pharmacologic stability of all probands
[2]; [3]
  accumulation in the kidneys: very few
  tumor-noise ratio: very favorable
[2]; biodistribution after 4 hours, athymic CD1 nu/nu mice, CCK-2 receptor positive A431 tumour
  tumor uptake: significant higher
[2]; mouse, in vivo
  tumor-to-kidney: best
